Data published in patent publication US20220347310A1, “AMIDE-LINKED, AMINOBENZAZEPINE IMMUNOCONJUGATES, AND USES THEREOF” (BOLT BIOTHERAPEUTICS, INC., priority 2019, published 2022).

Key:
[1] = target: T1, human TLR7 (Homo sapiens, UniProt Q9NYK1); test: HEK reporter assay, HEK293 reporter cells expressing human TLR7; type: cell-based; conditions: for EC50: HEK293 NFKB reporter cells expressing human TLR7, read-out: HEK293 hTLR7 EC50; for TLR7 activity after NHBoc modification of the dipropylamide, versus parent compound: Human HEK293 reporter cells, BZA-2 vs BZA-1, BZA-4 vs BZA-3 (FIG. 1B, 1D)
T1 construct: host or cells: HEK293 NF-kB reporter cells
T1 sequence (Q9NYK1 27-1049): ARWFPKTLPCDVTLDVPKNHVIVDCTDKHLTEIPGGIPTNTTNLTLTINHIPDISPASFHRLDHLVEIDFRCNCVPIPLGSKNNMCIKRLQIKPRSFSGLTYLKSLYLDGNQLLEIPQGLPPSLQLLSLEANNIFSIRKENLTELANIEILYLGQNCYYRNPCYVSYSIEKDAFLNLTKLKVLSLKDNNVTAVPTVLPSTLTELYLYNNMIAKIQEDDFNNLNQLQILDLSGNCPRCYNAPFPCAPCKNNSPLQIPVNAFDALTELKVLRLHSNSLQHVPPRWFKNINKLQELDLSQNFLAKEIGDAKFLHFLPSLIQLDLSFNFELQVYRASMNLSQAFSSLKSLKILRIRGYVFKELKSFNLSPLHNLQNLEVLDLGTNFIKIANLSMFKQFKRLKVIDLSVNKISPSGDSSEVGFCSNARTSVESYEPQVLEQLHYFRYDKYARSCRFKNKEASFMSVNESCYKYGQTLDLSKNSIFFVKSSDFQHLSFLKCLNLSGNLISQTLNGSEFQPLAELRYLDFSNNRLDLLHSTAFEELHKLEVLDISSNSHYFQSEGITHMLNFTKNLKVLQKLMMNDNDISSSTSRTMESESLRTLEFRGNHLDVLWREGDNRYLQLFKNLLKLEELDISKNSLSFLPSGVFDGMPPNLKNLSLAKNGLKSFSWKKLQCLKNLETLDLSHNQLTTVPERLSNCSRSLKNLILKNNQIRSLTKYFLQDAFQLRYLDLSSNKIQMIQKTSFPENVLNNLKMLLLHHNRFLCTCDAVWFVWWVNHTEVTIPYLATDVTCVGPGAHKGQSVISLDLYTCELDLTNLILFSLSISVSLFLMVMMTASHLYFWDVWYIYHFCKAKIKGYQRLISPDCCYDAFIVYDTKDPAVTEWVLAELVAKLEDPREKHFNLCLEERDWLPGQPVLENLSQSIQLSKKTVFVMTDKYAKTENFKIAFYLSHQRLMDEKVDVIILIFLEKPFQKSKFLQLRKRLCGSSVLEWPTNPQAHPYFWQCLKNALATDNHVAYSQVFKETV
Procedure: Each compound was characterized by mass spectrometry and shown to have the mass indicated. Activity against HEK293 NFKB reporter cells expressing human TLR7 or human TLR8 was measured according to Example 30.
(§1) HEK293 reporter cells expressing human TLR7 or human TLR8 were purchased from Invivogen and vendor protocols were followed for cellular propagation and experimentation. Briefly, cells were grown to 80-85% confluence at 5% CO2 in DMEM supplemented with 10% FBS, Zeocin, and Blasticidin. Cells were then seeded in 96-well flat plates at 4×10^4 cells/well with substrate containing HEK detection medium and immunostimulatory molecules. Activity was measured using a plate reader at 620-655 nm wavelength.

[2] = target: T2, human TLR8 (Homo sapiens, UniProt Q9NR97); test: HEK reporter assay, HEK293 reporter cells expressing human TLR8; type: cell-based; conditions: for EC50: HEK293 NFKB reporter cells expressing human TLR8, read-out: HEK293 hTLR8 EC50; for TLR8 activity after NHBoc modification of the dipropylamide, versus parent compound: Human HEK293 reporter cells, BZA-2 vs BZA-1, BZA-4 vs BZA-3 (FIG. 1A, 1C)
T2 construct: host or cells: HEK293 NF-kB reporter cells
T2 sequence (Q9NR97 27-1041): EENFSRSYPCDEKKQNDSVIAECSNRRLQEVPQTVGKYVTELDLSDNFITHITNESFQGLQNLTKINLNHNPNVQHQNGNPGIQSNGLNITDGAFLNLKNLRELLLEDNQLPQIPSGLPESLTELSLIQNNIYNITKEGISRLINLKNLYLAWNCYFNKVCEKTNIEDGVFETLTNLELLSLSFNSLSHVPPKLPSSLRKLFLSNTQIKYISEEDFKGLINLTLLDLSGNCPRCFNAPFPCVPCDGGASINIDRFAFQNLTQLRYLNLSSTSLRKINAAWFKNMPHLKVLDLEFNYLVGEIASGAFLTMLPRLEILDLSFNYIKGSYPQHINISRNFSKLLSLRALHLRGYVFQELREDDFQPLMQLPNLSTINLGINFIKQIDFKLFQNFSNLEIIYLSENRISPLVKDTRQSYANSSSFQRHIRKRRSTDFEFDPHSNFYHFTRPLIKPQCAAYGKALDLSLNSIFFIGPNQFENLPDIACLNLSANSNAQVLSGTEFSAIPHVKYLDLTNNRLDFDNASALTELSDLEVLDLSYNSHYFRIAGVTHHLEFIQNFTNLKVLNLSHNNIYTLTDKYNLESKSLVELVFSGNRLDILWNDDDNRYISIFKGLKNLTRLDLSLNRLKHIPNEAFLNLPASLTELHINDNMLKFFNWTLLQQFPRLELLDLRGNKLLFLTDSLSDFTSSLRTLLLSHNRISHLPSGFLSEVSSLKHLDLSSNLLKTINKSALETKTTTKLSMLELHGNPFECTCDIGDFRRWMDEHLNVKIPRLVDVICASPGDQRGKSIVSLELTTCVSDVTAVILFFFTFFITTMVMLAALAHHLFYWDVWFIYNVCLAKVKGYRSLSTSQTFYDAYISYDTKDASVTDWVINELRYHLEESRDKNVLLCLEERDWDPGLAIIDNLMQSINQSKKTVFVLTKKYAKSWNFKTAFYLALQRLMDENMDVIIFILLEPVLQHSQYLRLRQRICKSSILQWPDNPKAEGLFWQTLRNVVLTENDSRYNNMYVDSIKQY
Procedure: Activity against HEK293 NFKB reporter cells expressing human TLR7 or human TLR8 was measured according to Example 30.
as §1

Row | Compound | EC50 [1] | EC50 [2] | TLR7 activity after NHBoc modification of the dipropylamide, versus parent compound [1] | TLR8 activity after NHBoc modification of the dipropylamide, versus parent compound [2]
1 | CCCN(CCCNC(=O)OC(C)(C)C)C(=O)C1=Cc2ccc(C(=O)Nc3cnc(NCCNC(=O)OC(C)(C)C)nc3)cc2N=C(N)C1 [8AmBza-7, tert-butyl N-[3-[[2-amino-8-[[2-[2-(tert-butoxycarbonylamino)ethylamino]pyrimidin-5-yl]carbamoyl]-3H-1-benzazepine-4-carbonyl]-propyl-amino]propyl]carbamate] | > 9 µM | 1.76 µM | – | –
2 | CCCN(CCCNC(=O)OC(C)(C)C)C(=O)C1=Cc2ccc(C(=O)Nc3ccccc3)cc2N=C(N)C1 [8AmBza-9, tert-butyl (3-(2-amino-8-(phenylcarbamoyl)-N-propyl-3H-benzo [b]azepine-4-carboxamido)propyl)carbamate] | > 9 µM | 0.127 µM | – | –
3 | CCCN(CCCNC(=O)OC(C)(C)C)C(=O)C1=Cc2ccc(-c3cccc(S(=O)(=O)N4CC(CO)C4)c3)cc2N=C(N)C1 [BZA-2, tert-butyl (3-(2-amino-8-(3-((3-(hydroxymethyl)azetidin-1-yl)sulfonyl)phenyl)-N-propyl-3H-benzo[b]azepine-4-carboxamido)propyl)carbamate, reference compound] | – | – | significantly increasing TLR7 activity | minimally perturbs TLR8 activity
4 | CCCN(CCCNC(=O)OC(C)(C)C)C(=O)C1=Cc2ccc(C(=O)Nc3cccc(COCCOCCNC(=O)OC(C)(C)C)c3)cc2N=C(N)C1 [8AmBza-8, tert-butyl N-[3-[[2-amino-8-[[3-[2-[2-(tert-butoxycarbonylamino)ethoxy]ethoxymethyl]phenyl]carbamoyl]-3H-1-benzazepine-4-carbonyl]-propyl-amino]propyl]carbamate] | > 9 µM | 0.862 µM | – | –
5 | CCCN(CCC)C(=O)C1=Cc2ccc(C(=O)Nc3cncc(CNC(=O)CNC(=O)OC(C)(C)C)c3)cc2N=C(NC(=O)OC(C)(C)C)C1 [8AmBza-22] | > 9 µM | > 9 µM | – | –
6 | CCCN(CCCNC(=O)OC(C)(C)C)C(=O)C1=Cc2ccc(NC(=O)c3ccccc3)cc2N=C(N)C1 [BZA-4, tert-butyl (3-(2-amino-8-benzamido-N-propyl-3H-benzo[b]azepine-4-carboxamido)propyl)carbamate, reference compound] | – | – | increases TLR 7 activity | does not affect TLR 8 activity
7 | CCCN(Cc1ccc(CNC(=O)OC(C)(C)C)cc1)C(=O)C1=Cc2ccc(C(=O)Nc3ccccc3)cc2N=C(N)C1 [8AmBza-17] | > 9 µM | 0.782 µM | – | –

The remaining lines, values ahead:

Row | EC50 [1] | EC50 [2] | TLR7 activity after NHBoc modification of the dipropylamide, versus parent compound [1] | TLR8 activity after NHBoc modification of the dipropylamide, versus parent compound [2] | Compound
8 | 8.13 µM | 6.08 µM | – | – | CCCN(CCC)C(=O)C1=Cc2ccc(C(=O)Nc3cnc4c(c3)CN(C(=O)OC(C)(C)C)CC4)cc2N=C(NC(=O)OC(C)(C)C)C1 [8AmBza-20]
9 | 4.86 µM | 0.034 µM | – | – | CCCN(OCC)C(=O)C1=Cc2ccc(C(=O)Nc3ccccc3)cc2N=C(N)C1 [8AmBza-15]
10 | – | 2.18 µM | – | – | CCCN(CCC)C(=O)C1=Cc2ccc(C(=O)Nc3cnc4c(c3)CNCC4)cc2N=C(N)C1 [8AmBza-19]
11 | > 9 µM | 0.077 µM | – | – | CCCN(Cc1ccc(CN)cc1)C(=O)C1=Cc2ccc(C(=O)Nc3ccccc3)cc2N=C(N)C1 [8AmBza-16]
12 | > 9 µM | 0.245 µM | – | – | CCCN(CCC(F)(F)F)C(=O)C1=Cc2ccc(C(=O)Nc3ccccc3)cc2N=C(N)C1 [8AmBza-14]
13 | > 9 µM | 5.62 µM | – | – | CCCN(OCC)C(=O)C1=Cc2ccc(C(=O)Nc3ccc(N4CCC(C(=O)NCCN)CC4)nc3)cc2N=C(N)C1 [8AmBza-18, 2-amino-N8-[6-[4-(2-aminoethylcarbamoyl)-1-piperidyl]-3-pyridyl]-N4-ethoxy-N4-propyl-3H-1-benzazepine-4,8-dicarboxamide]
14 | > 9 µM | – | – | – | CCCN(CCC)C(=O)C1=Cc2ccc(C(=O)Nc3cncc(CNC(=O)CN)c3)cc2N=C(N)C1 [8AmBza-21]
